{
  "source": "patent US20240279191A1",
  "about": "(The General Hospital Corporation, priority 2021, published 2024)",
  "key": {"[1]": {"target": "TEAD2 (Homo sapiens, UniProt Q15562)", "sequence (Q15562 whole entry)": "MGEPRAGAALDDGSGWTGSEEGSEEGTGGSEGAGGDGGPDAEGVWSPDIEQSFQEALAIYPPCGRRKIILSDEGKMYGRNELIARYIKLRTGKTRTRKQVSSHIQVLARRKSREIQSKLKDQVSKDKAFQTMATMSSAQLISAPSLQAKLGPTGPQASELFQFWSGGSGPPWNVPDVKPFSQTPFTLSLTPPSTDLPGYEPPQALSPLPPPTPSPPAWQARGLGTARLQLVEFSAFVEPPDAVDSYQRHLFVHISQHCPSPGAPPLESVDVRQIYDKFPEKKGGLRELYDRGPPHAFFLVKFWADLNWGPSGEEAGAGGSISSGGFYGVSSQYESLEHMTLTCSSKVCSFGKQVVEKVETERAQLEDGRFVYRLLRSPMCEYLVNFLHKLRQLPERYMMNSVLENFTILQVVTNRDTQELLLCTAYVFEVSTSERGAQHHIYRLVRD", "assay": "Inhibition of TEAD2 auto-palmitoylation in vitro"}, "[2]": {"target": "TEAD4 (Homo sapiens, UniProt Q15561)", "sequence (Q15561 whole entry, species assumed)": "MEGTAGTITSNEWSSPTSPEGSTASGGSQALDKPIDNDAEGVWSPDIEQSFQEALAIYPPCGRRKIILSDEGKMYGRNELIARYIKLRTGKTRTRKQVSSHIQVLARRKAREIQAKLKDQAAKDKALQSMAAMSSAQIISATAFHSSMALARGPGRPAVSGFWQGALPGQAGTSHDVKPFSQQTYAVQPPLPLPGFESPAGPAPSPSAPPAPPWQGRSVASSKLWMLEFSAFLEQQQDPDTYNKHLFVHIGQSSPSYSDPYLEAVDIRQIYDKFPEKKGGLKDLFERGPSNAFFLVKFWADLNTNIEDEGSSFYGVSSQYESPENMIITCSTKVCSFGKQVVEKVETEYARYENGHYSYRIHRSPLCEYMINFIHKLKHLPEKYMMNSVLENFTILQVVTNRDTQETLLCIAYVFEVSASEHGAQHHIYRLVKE", "assay": "Inhibition of TEAD4 auto-palmitoylation in vitro"}},
  "data": [
    {"smiles": "O=C(Nc1ccccc1)N1CCN(C(=O)c2cccc(OCCC3CCCCC3)c2)CC1", "note": "[TM2, 4-(3-(2-cyclohexylethoxy)benzoyl)-N-phenylpiperazine-1-carboxamide]", "values": [
      {"measurement": "IC50", "setting": "[1]", "result": 156, "unit": "nM"},
      {"measurement": "IC50", "setting": "[2]", "result": 38, "unit": "nM"}
    ]}
  ]
}
